Counter-ions that a name gives are not always drawn.
What was measured:
[1] = Acute toxicity, LD 50 (oral route), mice; details: mouse, in vivo
Excerpt: A--The substances are of low toxicity. For example, the LD 50 value (oral route), determined in mice, of various compounds in accordance with the present invention are shown in column A of Table I.

[2] = test system: spasms of pain caused by the intraperitoneal injection of a solution of acetic acid; assay: Analgesic activity, acetic acid induced spasms of pain (Koster et al.); assay type: in vivo; details: mouse, oral; dose reducing spasms of pain by 50%; read-out: AD50, Acetic Acid
Description: B--Analgesic activity in the mouse was determined by the method of Koster et al. (Fed. Proc. 1959, Vol. 18, page 412). The active dose 50 (AD50) value for various compounds in accordance with the present invention was determined, namely, that dose which, when administered orally, reduces by 50% the spasms of pain caused by the intraperitoneal injection of a solution of acetic acid.

[3] = test system: carrageenin-induced edema; assay: Anti-inflammatory activity, carrageenin-induced edema test (Winter et al.); assay type: in vivo; details: rat, oral; dose inhibiting edema by 30%; read-out: AD30, Carrageenin
Excerpt: The protection afforded, by oral administration of the compound to a rat against edema induced by injecting a suspension of carrageenin under the arch of the foot of the animal was investigated. The AD30 dose is that which inhibits the edema by 30%.

[4] = test system: erythema produced by ultra violet radiation; assay: Protective effect against erythema from ultra violet radiation (Winder et al.); assay type: in vivo, albino guinea pigs; details: Cavia porcellus; albino guinea pig, oral; amount reducing erythema by 50%; read-out: AD50, U.V.
Description: D--The protective effect against inflammation resulting from exposure to radiation was determined in albino guinea pigs using the method of Winder et al (Arch. Inv. Pharmacodyn. 1958, Vol. 116, page 261). The AD50 value was determined for the test substance, namely the amount which, when administered to the animal orally, reduced by 50% the erythema produced by exposing the shaved dorsal skin of the guinea pig to ultra violet radiation.

platelets = assay: In vitro inhibition of platelet aggregation induced by collagen (Born); assay type: cell-based; details: read-out: minimal active concentration, Platelet Aggregation Induced By Collagen
Description: E--The anti-inflammatory activity was also determined by the aggregation-inhibiting effect of the compounds in accordance with the present invention, in vitro, on platelets the aggregation of which was induced by collagen, in accordance with the method of Born (Journal of Physiology, 1962, Vol. 162, page 67). It is known that compounds which inhibit the activity or quantity of prostaglandin synthetase will inhibit the formation of prostaglandin PGE2 and the inflammatory and pyretic effect thereof. Since prostaglandin PGE2 also causes an increase in platelet aggregation, this test is an effective indication of anti-inflammatory and anti-pyretic activity due to inhibition of prostaglandin synthetase.

[5] = Experiment A: clinical case studies, anti-inflammatory activity, oral administration; assay type: in vivo
Description: The following clinical experimentation was carried out to clinically test various compounds in accordance with the present invention for their anti-inflammatory, analgesic and platelet aggregation or clumping inhibition activites. […] Diagonsis: Seropositive, classic, rheumatoid polyarthritis, radioclinical stage IV Treatment: 600 mg/day for 3 weeks Diagnosis: Ankylosing spondylarthrittis with signs of peripheral joint inflammation Treatment: 600 mg/day for 3 weeks Diagnosis: Psoriatic peripheral rheumatism Treatment: 600 mg/day for 15 days

[6] = Case 1, rheumatoid polyarthritis, oral 600 mg/day for 3 weeks
[7] = Case 2, ankylosing spondylarthritis, oral 600 mg/day for 3 weeks
[8] = Case 3, psoriatic peripheral rheumatism, oral 600 mg/day for 15 days

SMILES | LD50 [1] | ED50 [2] | ED30 [3] | ED50 [4] | minimal effective concentration (platelets) | also measured
CCN(CC)CCOC(=O)C1Cc2ccc(C(=O)c3ccco3)cc2C1 (stereo not drawn) [2'-(N,N-diethylaminoethyl) 5-(2'-furoyl)-indan-2-carboxylate] | 1200 mg/kg | 8 mg/kg | 18 mg/kg | 20 mg/kg | 1 µg/mL | –
CCN(CC)CCOC(=O)C1Cc2ccc(C(=O)c3cccs3)cc2C1 (stereo not drawn) [2'-(N,N-diethylaminoethyl) 5-(2'-thenoyl)-indan-2-carboxylate, hydrochloride] | 2160 mg/kg | 4 mg/kg | 8 mg/kg | 10 mg/kg | 0.25 µg/mL | –
O=C(c1ccc2c(c1)CC(C(=O)O)C2)c1ccco1 (stereo not drawn) [5-(2'-furoyl)-indan-2-carboxylic acid, 5-(2'-Furoyl)-indan-2-carboxylic acid] | 1000 mg/kg | 11 mg/kg | 23 mg/kg | 14 mg/kg | 1 µg/mL | –
O=C(c1ccc2c(c1)CC(C(=O)O)C2)c1cccs1 (stereo not drawn) [5-(2'-thenoyl)-indan-2-carboxylic acid] | 1200 mg/kg | 6.5 mg/kg | 10 mg/kg | 21 mg/kg | 2.5 µg/mL | –
Cc1ccsc1C(=O)c1ccc2c(c1)CC(C(=O)O)C2 (stereo not drawn) [5-(3'-Methyl-2'-thenoyl)-indan-2-carboxylic acid] | 1200 mg/kg | 37 mg/kg | 26 mg/kg | 25 mg/kg | 10 µg/mL | –
O=C(c1ccoc1)c1ccc2c(c1)CC(C(=O)O)C2 (stereo not drawn) [5-(3'-furoyl)-indan-2-carboxylic acid, 5-(3'-Furoyl)-indan-2-carboxylic acid] | 2400 mg/kg | 16 mg/kg | 20 mg/kg | 18 mg/kg | 5 µg/mL | –
O=C(c1ccc2c(c1)CC(C(=O)O)C2)c1cc(Cl)c(Cl)s1 (stereo not drawn) [5-(4',5'-dichloro-2'-thenoyl)-indan-2-carboxylic acid] | 180 mg/kg | 30 mg/kg | 42 mg/kg | 90 mg/kg | 7.5 µg/mL | –
COc1ccc(C(=O)c2ccc3c(c2)CC(C(=O)O)C3)cc1 (stereo not drawn) [5-(4'-Methoxybenzoyl)-indan-2-carboxylic acid] | 650 mg/kg | 6 mg/kg | 13 mg/kg | 34 mg/kg | 2.5 µg/mL | –
CN(C)c1ccc(C(=O)c2ccc3c(c2)CC(C(=O)O)C3)cc1 (stereo not drawn) [5-(4'-dimethylaminobenzoyl)-indan-2-carboxylic acid] | 960 mg/kg | 3 mg/kg | 14 mg/kg | 20 mg/kg | 0.5 µg/mL | –
Cc1ccc(C(=O)c2ccc3c(c2)CC(C(=O)O)C3)o1 (stereo not drawn) [5-(5'-Methyl-2'-furoyl)-indan-2-carboxylic acid] | 2400 mg/kg | 8 mg/kg | 10 mg/kg | 16 mg/kg | 1 µg/mL | –
Cc1ccc(C(=O)c2ccc3c(c2)CC(C(=O)O)C3)s1 (stereo not drawn) [5-(5'-Methyl-2'-thenoyl)-indan-2-carboxylic acid] | 3000 mg/kg | 12 mg/kg | 7.5 mg/kg | 14 mg/kg | 1 µg/mL | Tolerance ([5]; Case 1, oral 600 mg/day for 3 weeks): Very good clinical and biological tolerance; Conclusion [5, 6]: Good result; erythrocyte sedimentation rate (ESR) [5, 6]: decrease; mobility [5, 6]: Improved mobility; morning stiffness [5, 6]: Decrease; peripheral pain [5, 6]: Decrease; Conclusion [5, 7]: Good result; analgesic effect [5, 7]: Good analgesic effect; articular perimeters [5, 7]: decrease in articular perimeters; effectiveness compared with phenylbutazone [5, 7]: As effective as phenylbutazone; mobility [5, 7]: Good mobility; Tolerance ([5]; Case 2, oral 600 mg/day for 3 weeks): Good clinical and biological tolerance; Tolerance ([5]; Case 3, oral 600 mg/day for 15 days): Good clinical and biological tolerance; Conclusion [5, 8]: Very good result; articular perimeter [5, 8]: decrease in articular perimeter; local heat [5, 8]: decrease in local heat; morning pain [5, 8]: Decrease in morning pain
CN(C)S(=O)(=O)c1ccc(C(=O)c2ccc3c(c2)CC(C(=O)O)C3)cc1 (stereo not drawn) [5-(p-dimethylaminosulfonylbenzoyl)-indan-2-carboxylic acid] | 2600 mg/kg | 80 mg/kg | 160 mg/kg | > 300 mg/kg | 10 µg/mL | –
CS(=O)(=O)c1ccc(C(=O)c2ccc3c(c2)CC(C(=O)O)C3)cc1 (stereo not drawn) [5-(p-methylsulfonylbenzoyl)-indan-2-carboxylic acid] | 2800 mg/kg | 35 mg/kg | 40 mg/kg | 10 mg/kg | 1 µg/mL | –
NS(=O)(=O)c1ccc(C(=O)c2ccc3c(c2)CC(C(=O)O)C3)cc1 (stereo not drawn) [5-(p-sulfamidobenzoyl)-indan-2-carboxylic acid] | > 3200 mg/kg | 25 mg/kg | 43 mg/kg | 90 mg/kg | 5 µg/mL | –
O=C(c1ccccc1)c1ccc2c(c1)CC(C(=O)O)C2 (stereo not drawn) [5-benzoyl-indan-2-carboxylic acid] | 2100 mg/kg | 40 mg/kg | 18 mg/kg | 40 mg/kg | 2.5 µg/mL | –
CCOC(=O)C1Cc2ccc(C(=O)c3ccc(NC(C)=O)c(Cl)c3)cc2C1 (stereo not drawn) [Ethyl 5-(4'-acetamido-3'-chlorobenzoyl)-indan-2-carboxylate] | 3200 mg/kg | 35 mg/kg | 60 mg/kg | 80 mg/kg | 5 µg/mL | –
CCN(CC)CCNC(=O)C1Cc2ccc(C(=O)c3cc(Cl)ccc3Cl)cc2C1 (stereo not drawn) [N-[2'-(N',N'-diethylaminoethyl)]5-(2',5'-dichlorobenzoyl)-indan-2-carboxamide] | 720 mg/kg | 15 mg/kg | 25 mg/kg | 50 mg/kg | 2.5 µg/mL | –
CCN(CC)CCNC(=O)C1Cc2ccc(C(=O)c3cccs3)cc2C1 (stereo not drawn) [N-[2'-(N',N'-diethylaminoethyl)]5-(2'-thenoyl)-indan-2-carboxamide] | 660 mg/kg | 2.5 mg/kg | 8 mg/kg | 10 mg/kg | 0.25 µg/mL | –
CCN(CC)CCNC(=O)C1Cc2ccc(C(=O)c3ccccc3)cc2C1 (stereo not drawn) [N-[2'-(N',N'-diethylaminoethyl)] 5-benzoyl-indan-2-carboxamide] | 1100 mg/kg | 30 mg/kg | 9 mg/kg | 25 mg/kg | 2.5 µg/mL | –
COC(=O)C1Cc2ccc(C(=O)c3ccco3)cc2C1 (stereo not drawn) [methyl 5-(2'-furoyl)-indan-2-carboxylate, Methyl 5-(2'-furoyl)-indan-2-carboxylate] | 3200 mg/kg | 9 mg/kg | 13 mg/kg | 19 mg/kg | 1 µg/mL | –

From patent publication US4269848A, “5-Substituted indan-2-carboxylic acid and functional derivatives” (Lipha, Lyonnaise Industrielle Pharmaceutique, priority 1976, dated 1981)
